Data published in patent US20080004271A1, “Inhibitors of TNFalpha, PDE4 and B-RAF, compositions thereof and methods of use therewith” (priority 2006, published 2008).

Legend:
pMEK1/2 in A375 cells = assay: A375 pMEK1/2 Meso Scale Assay; format: cell-based; details: Homo sapiens, A-375, 2 h; A375 pMEK1/2, about two hours incubation
Protocol: On the afternoon of Day 1, cells are plated in a 96-well flat bottom cell culture plate at about 50,000 cells/well in a volume of 100 μl. On the morning of Day 2, serial dilutions of test compound(s) are added to the plate. The plate is incubated for about two hours at 37° C., […]. The plate is blocked about five minutes before the compound incubation step is completed by adding 150 μl/well of MSD (Meso Scale Discovery) blocking solution-A (prepared with 20 ml 1× Tris wash buffer (25 ml of 10× Tris buffer+225 ml deionized water) and 600 mg MSD blocker A) and incubating with vigorous shaking at room temperature for one hour. The plate is washed 4× with 1× Tris wash buffer.
Cells are harvested and lysates prepared by removing medium, washing 1× with ice-cold PBS (calcium and magnesium free), adding 50 μl/well Complete Tris buffer and incubating with shaking at 4° C. for one hour. Lysate samples (25 μl) are added to an MSD Multi-Spot plate and incubated with vigorous shaking at room temperature for two hours. The plate is washed 1× with Tris wash buffer.
25 μl/well of […] detection antibody (Anti-pMEK1/2 antibody; SULFO-TAG labeled, light sensitive) in 3 ml of cold antibody dilution buffer (1 ml blocking solution-A, 1.82 ml 1× Tris wash buffer, 150 μl 2% MSD blocker D-M and 30 μl 10% MSD blocker D-R) is added and the plate is incubated with vigorous shaking at room temperature in the dark for one hour. The plate is washed 1× with Tris wash buffer.
150 μl/well of 1× MSD Read buffer T (with surfactant) is added to the plate and the plate is read using a MSD Sector instrument.

A375 cells = assay: Alamar Blue Viability Assay; format: cell-based; details: Homo sapiens, A-375, 72 h, 3 days
Protocol: A375 cells (ATCC # CRL-1619; Passage 4˜15; doubling time is roughly 18 hours) are used. Culture medium is DMEM (high glucose, with L-glutamine)+10% FBS+Pen/Strep. Cells are passed every three days at 1:20.
200 μl of medium only is added into all wells along the edges of a 96-well flat bottom plate and 180 μl of cell suspension (containing 1,000 cells) per well is added into the plate with a Low Evaporation Lid (Costar Cat # 3595). The cells are cultured overnight. Compounds and controls are diluted according to standard compound dilution protocol described below. From 30 mM stock solution, 10 mM, 3 mM, 1 mM, and 0.3 mM solutions in 100% DMSO are prepared using the following serial dilution protocol:
The 30, 10, 3, 1 and 0.3 mM solutions are diluted 1:50 (DMSO:medium) by adding 4 μl of each to 196 μl of culture medium. This yields 600 μM, 200 μM, 60 μM, 20 μM, and 6 μM secondary stock solutions. 4 μl of DMSO are added to 196 μl medium for the DMSO control as well. 20 μl of compound dilutions, including the DMSO control locations (Row G, Columns 2-10 are DMSO control wells), are added in triplicate to the cells in the 96-well plate using a repeat pipettor (see plate layout below). This yields final concentrations of 60 μM, 20 μM, 6 μM, 2 μM, and 0.6 μM containing 0.2% DMSO in each well. The plate is gently tapped to evenly distribute compound within the well. The plate is incubated at 5% CO2 at 37° C. for 3 days.
20 μl of Alamar Blue (Biosource #DAL-1100) is added to each well. The plate is incubated in 5% CO2 incubator for 4 hours. Fluorescence is measured with excitation wavelength at 530 nm and emission wavelength at 590 nm using a Victor 2 multilabel plate reader (Perkin Elmer). Data is saved with plate format as a Text file and entered into ActivityBase (Cell-based SAR; Prolif-Alamar; MTT 5 plates unfixed fit) to calculate the percent of DMSO values for each compound set of triplicate wells and IC50 curves are plotted.

V600E mutant B-RAF = target: T1, V600E mutant B-RAF (Homo sapiens, UniProt P15056, V600E); assay: V600E Mutant B-RAF 33P Assay; format: biochemical
T1 construct: purchased Upstate
T1 sequence (P15056 whole entry V600E): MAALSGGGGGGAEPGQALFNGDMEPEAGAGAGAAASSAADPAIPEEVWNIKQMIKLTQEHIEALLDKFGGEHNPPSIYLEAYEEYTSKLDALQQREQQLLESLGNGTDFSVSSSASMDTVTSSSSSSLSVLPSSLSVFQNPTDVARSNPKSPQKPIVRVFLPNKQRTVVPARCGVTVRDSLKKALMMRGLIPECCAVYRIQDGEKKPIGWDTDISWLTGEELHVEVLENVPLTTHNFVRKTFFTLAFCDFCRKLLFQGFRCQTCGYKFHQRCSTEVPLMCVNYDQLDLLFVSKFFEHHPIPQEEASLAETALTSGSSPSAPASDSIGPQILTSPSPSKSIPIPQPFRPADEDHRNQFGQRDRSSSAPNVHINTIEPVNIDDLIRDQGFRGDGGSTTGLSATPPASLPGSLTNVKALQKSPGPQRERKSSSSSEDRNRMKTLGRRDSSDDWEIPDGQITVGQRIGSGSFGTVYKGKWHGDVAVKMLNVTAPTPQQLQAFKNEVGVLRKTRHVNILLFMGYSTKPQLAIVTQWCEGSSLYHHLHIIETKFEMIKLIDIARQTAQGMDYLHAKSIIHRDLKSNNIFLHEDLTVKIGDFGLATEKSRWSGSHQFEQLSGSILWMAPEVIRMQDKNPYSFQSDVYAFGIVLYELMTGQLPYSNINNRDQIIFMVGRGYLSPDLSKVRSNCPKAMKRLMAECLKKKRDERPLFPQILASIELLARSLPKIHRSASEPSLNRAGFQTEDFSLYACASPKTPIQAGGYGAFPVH
Protocol: Substrate (HIS-MEK1 K97M) is prepared by Celgene Corp. as described above.
Test compound is diluted in 100% DMSO (600 μM). […] Substrate mixture is prepared as 7.5 μM HIS-MEK1 K97M in assay buffer. ATP mixture is prepared as 300 μM ATP, 75 mM MgCl2, 0.05 μCi/μl ^33P ATP in assay buffer.
In a 96 well assay plate (Falcon Polylpropylene well U-bottom), the following are added to each well: 2.5 μl of test compound solution (serial dilutions), 20 μl of substrate mixture and 17.5 μl of enzyme mixture. The plate is incubated for at least 15 minutes. 10 μl of ATP mixture is added and the plate is incubated at room temperature for about 60 minutes. 80 μl of 12.5% TCA is added to each well, and the plate is incubated for at least 20 minutes. The contents of the plate is transferred to a glass fiber filter plate (Millipore) using a Packard Harvester (washing 10× with 1×PBS). 50 μl of Scintillation-20 fluid is added to each well. The plate is read using a Packard TopCount.

C[C@H](CO)Cc1nc(-c2ccc(Cl)c(Cl)c2)c2c(N)c(C(N)=O)sc2n1 [Example 163]
IC50 (pMEK1/2 in A375 cells): 10 to 20 µM | IC50 (A375 cells): 30 to 60 µM

C[C@@H](CO)Cc1nc(-c2ccc(Cl)c(Cl)c2)c2c(N)c(C(N)=O)sc2n1 [Example 164]
IC50 (pMEK1/2 in A375 cells): 10 to 20 µM | IC50 (A375 cells): 20 to 30 µM

COc1cncc(-c2nc(NC3CC3)nc3sc(C(N)=O)c(N)c23)c1 [Example 165]
IC50 (pMEK1/2 in A375 cells): 0.1 to 10 µM | IC50 (A375 cells): 0.1 to 10 µM

COc1cncc(-c2nc(NC(C)(C)CO)nc3sc(C(N)=O)c(N)c23)c1 [Example 173]
IC50 (pMEK1/2 in A375 cells): 0.1 to 10 µM | IC50 (A375 cells): 0.1 to 10 µM

COc1cncc(-c2nc(N[C@H](C)CO)nc3sc(C(N)=O)c(N)c23)c1 [Example 176]
IC50 (pMEK1/2 in A375 cells): 0.1 to 10 µM | IC50 (A375 cells): 0.1 to 10 µM

CC(C)(CO)Nc1nc(-c2cc(O)cc(Cl)c2)c2c(N)c(C(N)=O)sc2n1 [Example 190]
IC50 (pMEK1/2 in A375 cells): 0.1 to 10 µM | IC50 (A375 cells): 0.1 to 10 µM

C[C@@H](CO)Nc1nc(-c2ccc(Cl)c(Cl)c2)c2c(N)c(C(N)=O)sc2n1 [Example 200]
IC50 (pMEK1/2 in A375 cells): 0.1 to 10 µM | IC50 (A375 cells): 10 to 20 µM

C[C@H](CO)Nc1nc(-c2ccc(Cl)c(Cl)c2)c2c(N)c(C(N)=O)sc2n1 [Example 201]
IC50 (pMEK1/2 in A375 cells): 0.1 to 10 µM | IC50 (A375 cells): 10 to 20 µM

CC(C)(CO)Nc1nc(-c2ccc(Cl)c(Cl)c2)c2c(N)c(C(N)=O)sc2n1 [Example 203]
IC50 (pMEK1/2 in A375 cells): 0.1 to 10 µM | IC50 (A375 cells): 10 to 20 µM

C[C@H](CO)Oc1nc(-c2ccc(Cl)c(Cl)c2)c2c(N)c(C(N)=O)sc2n1 [Example 212]
IC50 (pMEK1/2 in A375 cells): 0.1 to 10 µM | IC50 (A375 cells): 10 to 20 µM

CC(C)(CN1CCCC1)Nc1nc(-c2ccc(Cl)c(Cl)c2)c2c(N)c(C(N)=O)sc2n1 [Example 216]
IC50 (V600E mutant B-RAF): 0.1 to 10 µM | IC50 (A375 cells): 10 to 20 µM

CC(O)CCNc1nc(-c2ccc(Cl)c(Cl)c2)c2c(N)c(C(N)=O)sc2n1 (stereo not shown) [Example 221]
IC50 (V600E mutant B-RAF): 0.1 to 10 µM | IC50 (A375 cells): 10 to 20 µM

NC(=O)c1sc2nc(NC3CNC3)nc(-c3ccc(Cl)c(Cl)c3)c2c1N [Example 227]
IC50 (V600E mutant B-RAF): 0.1 to 10 µM | IC50 (A375 cells): 0.1 to 10 µM

NC(=O)c1sc2nc(N[C@@H]3CCOC3)nc(-c3ccc(Cl)c(Cl)c3)c2c1N [Example 229]
IC50 (V600E mutant B-RAF): 0.1 to 10 µM | IC50 (A375 cells): 10 to 20 µM

NC(=O)c1sc2nc(NC3CC3)nc(-c3cccc(O)c3F)c2c1N [Example 232]
IC50 (pMEK1/2 in A375 cells): 0.1 to 10 µM | IC50 (A375 cells): 0.1 to 10 µM

COc1cc(-c2nc(NC3CC3)nc3sc(C(N)=O)c(N)c23)ccc1C(F)(F)F [Example 233]
IC50 (V600E mutant B-RAF): 0.1 to 10 µM | IC50 (A375 cells): 10 to 20 µM

NC(=O)c1sc2nc(NC3CC3)nc(-c3ccc(C(F)(F)F)cc3)c2c1N [Example 235]
IC50 (V600E mutant B-RAF): 0.1 to 10 µM | IC50 (A375 cells): 20 to 30 µM

NC(=O)c1sc2nc(NC3CC3)nc(-c3ccnc(Cl)c3)c2c1N [Example 236]
IC50 (V600E mutant B-RAF): 0.1 to 10 µM | IC50 (A375 cells): 30 to 60 µM

NC(=O)c1sc2nc(NC3CC3)nc(-c3ccnc(O)c3)c2c1N [Example 237]
IC50 (V600E mutant B-RAF): 10 to 20 µM | IC50 (A375 cells): > 60 µM

NC(=O)c1sc2nc(NC3CC3)nc(-c3cccc([N+](=O)[O-])c3)c2c1N [Example 244]
IC50 (V600E mutant B-RAF): 0.1 to 10 µM | IC50 (A375 cells): 30 to 60 µM

NC(=O)c1sc2nc(NC3CC3)nc(-c3cccc(NC(=O)C(F)(F)F)c3)c2c1N [Example 246]
IC50 (V600E mutant B-RAF): 10 to 20 µM | IC50 (A375 cells): > 60 µM

NC(=O)c1sc2nc(NC3CC3)nc(-c3cccc(NC(=O)Nc4ccccc4)c3)c2c1N [Example 248]
IC50 (pMEK1/2 in A375 cells): 10 to 20 µM | IC50 (A375 cells): 10 to 20 µM

NC(=O)c1sc2nc(NC3CC3)nc(-c3cccc(NC(=O)Nc4ccc(C(F)(F)F)cc4)c3)c2c1N [Example 250]
IC50 (pMEK1/2 in A375 cells): 0.1 to 10 µM | IC50 (A375 cells): 0.1 to 10 µM

Cc1ccc(NC(=O)Nc2cccc(-c3nc(NC4CC4)nc4sc(C(N)=O)c(N)c34)c2)cc1 [Example 251]
IC50 (pMEK1/2 in A375 cells): 0.1 to 10 µM | IC50 (A375 cells): 0.1 to 10 µM

NC(=O)Cc1nc(-c2ccc(Cl)c(Cl)c2)c2c(N)c(C(N)=O)sc2n1 [Example 254]
IC50 (V600E mutant B-RAF): 0.1 to 10 µM | IC50 (A375 cells): > 60 µM

NC(=O)c1sc2nc(CC(=O)O)nc(-c3ccc(Cl)c(Cl)c3)c2c1N [Example 255]
IC50 (V600E mutant B-RAF): 0.1 to 10 µM | IC50 (A375 cells): > 60 µM

NC(=O)c1sc2ncnc(-c3cc4c(c(OCc5ccccc5)c3)CCO4)c2c1N [Example 266]
IC50 (V600E mutant B-RAF): > 60 µM | IC50 (A375 cells): 10 to 20 µM

NC(=O)c1sc2ncnc(-c3cc(O)c4c(c3)OCC4)c2c1N [Example 267]
IC50 (V600E mutant B-RAF): 0.1 to 10 µM | IC50 (A375 cells): 10 to 20 µM

NC(=O)c1nc(-c2ccc(Cl)c(Cl)c2)c2c(N)c(C(N)=O)sc2n1 [Example 268]
IC50 (V600E mutant B-RAF): 0.1 to 10 µM | IC50 (A375 cells): 30 to 60 µM

CC(C)[C@@H](CO)Nc1nc(-c2ccc(Cl)c(Cl)c2)c2c(N)c(C(N)=O)sc2n1 [Example 272]
IC50 (V600E mutant B-RAF): 0.1 to 10 µM | IC50 (A375 cells): 10 to 20 µM

NC(=O)c1sc2nc(NC3CC3)nc(Nc3ccccc3)c2c1N [Example 278]
IC50 (V600E mutant B-RAF): 10 to 20 µM | IC50 (A375 cells): 30 to 60 µM

NC(=O)c1sc2nc(NC3CC3)nc(Nc3ccc(Cl)c(Cl)c3)c2c1N [Example 279]
IC50 (V600E mutant B-RAF): 30 to 60 µM | IC50 (A375 cells): 0.1 to 10 µM

NC(=O)c1sc2nc(NC3(CO)CCC3)nc(-c3ccc(Cl)c(Cl)c3)c2c1N [Example 281]
IC50 (V600E mutant B-RAF): 0.1 to 10 µM | IC50 (A375 cells): 10 to 20 µM

COc1ccnc(-c2nc(NC(C)(C)CO)nc3sc(C(N)=O)c(N)c23)c1 [Example 284]
IC50 (V600E mutant B-RAF): 30 to 60 µM | IC50 (A375 cells): 10 to 20 µM

CCOc1nc(-c2cccc(C(F)F)c2)c2c(N)c(C(N)=O)sc2n1 [Example 285]
IC50 (V600E mutant B-RAF): 0.1 to 10 µM | IC50 (A375 cells): 10 to 20 µM

CC(C)(CO)Nc1nc(-c2cccc(C(F)F)c2)c2c(N)c(C(N)=O)sc2n1 [Example 286]
IC50 (V600E mutant B-RAF): 0.1 to 10 µM | IC50 (A375 cells): 10 to 20 µM

NC(=O)c1sc2ncnc(-c3cccc(Nc4nc5cc(C(F)(F)F)ccc5o4)c3)c2c1N [Example 288]
IC50 (V600E mutant B-RAF): 0.1 to 10 µM | IC50 (A375 cells): 10 to 20 µM

NC(=O)c1sc2ncnc(-c3cccc(NC(=O)Nc4cccnc4)c3)c2c1N [Example 293]
IC50 (V600E mutant B-RAF): 0.1 to 10 µM | IC50 (A375 cells): 10 to 20 µM
